Experimental findings from ChEMBL document CHEMBL5537195, “Novel Covalent Probe Selectively Targeting Glutathione Peroxidase 4 In Vivo: Potential Applications in Pancreatic Cancer Therapy” (J Med Chem, 2024) are described below.

A word on the half-life: it is how long it takes for the measured level to halve. A high value points to slow loss.

The structures appear in SMILES notation. Calls of active or inactive are those of the source. The calls are words filed in the database; no cut-off is given here.

Data set [1] can be described thus: Half life in Sprague-Dawley rat at 2 mg/kg, iv measured upto 48 hrs by LC-MS/MS analysis. The format is ADME, organism-based. The note with it: in vivo.
The target of data set [2] is T1, Phospholipid hydroperoxide glutathione peroxidase GPX4 (Homo sapiens) (UniProt P36969).
T1 sequence (whole entry): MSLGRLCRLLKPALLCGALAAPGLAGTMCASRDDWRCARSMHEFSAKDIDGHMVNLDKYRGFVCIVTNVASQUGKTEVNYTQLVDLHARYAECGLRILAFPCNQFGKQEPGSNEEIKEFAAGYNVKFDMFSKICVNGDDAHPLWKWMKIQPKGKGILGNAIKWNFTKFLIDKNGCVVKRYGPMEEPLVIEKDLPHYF
Kind of data set: Binding affinity to GPX4 in human SW1990 cells at 0.2 uM incubated for 1 hr by SDS-PAGE analysis. The format is cell-based.

The next data set deals with ASPC1. Kind of data set: Induction of apoptosis in human ASPC1 cells at 20 to 200 nM incubated for 48 hrs by FITC based flow cytometry analysis. The note with it: dose 20-200 nM. Format: functional, cell-based. On the technique in general: A flow cytometer gives signals particle by particle.

In turn, `C#CCN(Cc1ccc(S(=O)(=O)N(C)C#C)cc1)c1ccc(-c2nc3ccccc3s2)cc1` had a half-life in data set [1] of 2.55 h. For the same compound, the outcome in data set [2] was Active. The result with ASPC1 was inactive.
